Test results from patent US11596692B1 (Incyte Corporation, priority 2018, dated 2023).
Read-outs that look alike come from different tables or passages of the source.

What was measured:
[1] = system: IRF3 activation in PD-L1 low HEK293T STING reporter cell line; experiment: IRF3 activation in HEK293T STING reporter cells, low PD-L1; format: cell-based, human; conditions: 20 hours, read-out: IRF Activation EC50 (nM), Low PD-L1
Protocol: (§1) HEK293T STING reporter cell line was purchased from Invivogen and expressed low level of PD-L1. This cell line was then engineered at Incyte Research Institute to overexpress human PD-L1. Both PD-L1 high and PD-L1 low HEK293T cell lines were plated at 100,000 cells/100 μL/well in 10% fetal calf serum-containing DMEM culture medium in a 96-well flat bottom plate. Serial dilutions of PD-L1 small molecule-conjugated STING agonists were then added to the corresponding wells, and incubated for 20 hours at 37° C. In a competition study setting, 1 μM of a PD-L1 small molecule was added in the corresponding wells to compete with the binding of PD-L1 small molecule-conjugated STING agonists. At the end of the incubation, the culture supernatants were carefully removed from each well, and the amount of IRF3 activation was determined by adding Quanti-Blue substrate in accordance with the manufacturer's protocol.
(§2) 293T-Dual hSTING-R232 (ISG/KI-IFNb) cells that were generated from 293T-Dual Null (ISG/KI-IFNb) cells by stable transfection of the R232 isoform of human STING were purchased from Invivogen (Invivogen #293d-r232).
(§3) This cell line expresses an ISRE-inducible SEAP (secreted embryonic alkaline phosphatase) reporter construct, which monitors the activation of interferon regulatory factor (IRF) and its binding to ISRE (IFN-stimulated response elements). These reporter cells express low level of PD-L1. Human PD-L1 was then overexpressed in these cells through stable transfection.
(§4) These 293T-Dual hSTING-R232 reporter cells as well as293T-Dual hSTING-R232 reporter cells overexpressing huPD-L1 were treated with various concentrations of STING compounds for 20 hours. After 20 hours, interferon regulatory factor (IRF) activity was assessed by measuring SEAP levels in the supernatant using QUNTI-Blue. EC50 values were generated by curve fit in Prism software.

[2] = system: IRF3 activation in PD-L1 high HEK293T STING reporter cell line; experiment: IRF3 activation in HEK293T STING reporter cells, high PD-L1; format: cell-based, human; conditions: for EC50: 20 hours; for Potency shift: with compound P27 (1 μM) versus no competition
Protocol: as §1, §2, §3, §4

PD-L1 [3] = biological target: T1, PD-L1 (Homo sapiens (Human), UniProt Q9NZQ7); experiment: PD-L1 surface levels on HEK293T STING reporter cells, high PD-L1; format: cell-based
Protocol: To determine PD-L1 expression on HEK cells after treatment of PD-L1-small molecule conjugated STING agonists, cells were harvested at 20 hours post-treatment. Single cell suspensions were then stained with phycoerythrin-conjugated anti-PD-L1 antibody (BD Bioscience), and the PD-L1 expression were then analyzed by flow cytometry. Mean fluorescence intensity was used as the relative level of surface PD-L1 expression on cells (FIG. 1 and Table 6).
Also, cells were stained with PE-conjugated anti-human PD-L1 antibody to determine surface PD-L1 expression. Cell acquisition was performed on BD LSRFortessa X-20 (BD Biosciences). Data was analyzed using FlowJo software. IC50 values were calculated using Prism Software.

PD-L1 [4] = biological target: T1, PD-L1; experiment: Indirect whole blood PD-L1 internalization assay; format: cell-based; conditions: interferon γ, 18 hours, CD14+ gated
Protocol: To determine PD-L1 internalization in human whole blood, normal human blood (Biological Specialty Corp, Colmar. Pa.) was incubated in the presence or absence of a concentration range of test compounds and 1 ng/ml human interferon γ (R&D Systems Inc. Minn. Minn.) in a 96 well round bottom plate (Corning, Corning, N.Y.) for 18 hours at 37° C. Blood was then transferred into 96 well “2 ml Assay Block” (Corning, Corning N.Y.) and stained with PD-L1 (MIH1, eBioscience; or BD Biosciences San Jose, Calif.), CD14 (Life Technologies, Carlsbad, Calif.) for 30 minutes in the dark at room temperature. Whole Blood/red cells were lysed/fixed (lysis buffer BD Biosciences) for 5 minutes at 37° C. in dark and then centrifuged at 1600 RPM for 5 minutes and cells were transferred into 96 well round bottom plates (Corning). Cells were gated on CD14+ (BD Biosciences) and PD-L1 expression determined by mean fluorescence intensity (MFI) (BD LSRFortessa™ X-20). IC50 determination was performed by fitting the curve of compound percent inhibition versus the log of the compound concentration using the GraphPad Prism 7.0 software.

[5] = high PD-L1 cells, read-out: IRF Activation EC50 (nM), High PD-L1
[6] = no competition, read-out: IRF Activation EC50 (nM), No competition
[7] = read-out: IRF Activation EC50 (nM), With compound P27 (1 μM), competition with compound P27 1 μM

T1 sequence (Q9NZQ7 19-290): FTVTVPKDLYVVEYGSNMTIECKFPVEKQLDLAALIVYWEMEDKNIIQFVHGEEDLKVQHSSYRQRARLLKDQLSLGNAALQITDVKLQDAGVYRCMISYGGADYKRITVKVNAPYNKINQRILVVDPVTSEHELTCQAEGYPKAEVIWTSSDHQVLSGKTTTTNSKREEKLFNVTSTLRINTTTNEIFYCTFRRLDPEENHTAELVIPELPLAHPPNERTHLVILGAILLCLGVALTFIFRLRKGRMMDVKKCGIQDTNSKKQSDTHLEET

IC50 (PD-L1 [4]) [µM]	SMILES	EC50 [1] [nM]	EC50 [2, 5] [nM]	EC50 [2, 6] [nM]	EC50 [2, 7] [nM]	Potency shift [2]	IC50 (PD-L1 [3]) [µM]
	CCn1nc(C)cc1C(=O)Nc1nc2cc(C(N)=O)cc(OC)c2n1C/C=C/Cn1c(NC(=O)c2cc(C)nn2CC)nc2cc(C(N)=O)cc(OCCCNC(=O)CCNC(=O)OCc3ccc(NC(=O)[C@H](CCCNC(N)=O)NC(=O)[C@@H](NC(=O)CCCN4CCc5c(nc(C(=O)Nc6cccc(-c7cccc(NC(=O)c8nc9c(n8C)CCN(CCCC(=O)N[C@@H](CC(=O)O)C(=O)O)C9)c7Cl)c6Cl)n5C)C4)C(C)C)cc3)c21 [Example 3]	200 to 1000	< 50	< 50	200 to 1000	>20	
	CCn1nc(C)cc1C(=O)Nc1nc2cc(C(N)=O)cc(OC)c2n1C/C=C/Cn1c(NC(=O)c2cc(C)nn2CC)nc2cc(C(N)=O)cc(OCCCNC(=O)[C@H](CC(=O)O)NC(=O)[C@H](CC(=O)O)NC(=O)[C@H](CCCNC(=N)N)NC(=O)[C@H](CC(=O)O)NC(=O)CCNC(=O)C3CCN(Cc4cc(C#N)c5oc(-c6cccc(-c7cccc(Nc8nc(C(F)F)nc9cc(CN%10CC[C@@H](O)C%10)cnc89)c7C)c6C)nc5c4)CC3)c21 [Example 8]	50 to 200	< 50				0.2 to 1
	CCn1nc(C)cc1C(=O)Nc1nc2cc(C(N)=O)cc(OCCCNC(=O)[C@H](CC(=O)O)NC(=O)[C@H](CC(=O)O)NC(=O)[C@H](CCCNC(=N)N)NC(=O)[C@H](CC(=O)O)NC(=O)CCCN3CCc4c(nc(C(=O)Nc5cccc(-c6cccc(NC(=O)c7nc8c(n7C)CCN(CCCC(=O)O)C8)c6Cl)c5Cl)n4C)C3)c2n1C/C=C/Cn1c2nc(-c3cc(C)nn3CC)ncc2c2cc(C(N)=O)cc(OCCCOC)c21 [Example 23]	50 to 200	< 50				< 0.05
	CCn1nc(C)cc1C(=O)Nc1nc2cc(C(N)=O)cc(OC)c2n1C/C=C/Cn1c(NC(=O)c2cc(C)nn2CC)nc2cc(C(N)=O)cc(OCCCNC(=O)[C@H](CC(=O)O)NC(=O)[C@H](CC(=O)O)NC(=O)[C@H](CCCNC(=N)N)NC(=O)[C@H](CC(=O)O)NC(=O)[C@H](CC(=O)O)NC(=O)[C@H](CC(=O)O)NC(=O)[C@H](CCCNC(=N)N)NC(=O)[C@H](CC(=O)O)NC(=O)CCCN3CCc4c(nc(C(=O)Nc5cccc(-c6cccc(NC(=O)c7nc8c(n7C)CCN(CCCC(=O)O)C8)c6Cl)c5Cl)n4C)C3)c21 [Example 15]	50 to 200	< 50				< 0.05
	CCn1nc(C)cc1C(=O)Nc1nc2cc(C(N)=O)cc(OC)c2n1C/C=C/Cn1c(NC(=O)c2cc(C)nn2CC)nc2cc(C(N)=O)cc(OCCCNC(=O)[C@@H](NC(=O)[C@H](CC(=O)O)NC(=O)[C@H](CC(=O)O)NC(=O)[C@H](CCCNC(=N)N)NC(=O)[C@H](CC(=O)O)NC(=O)CCCN3CCc4c(nc(C(=O)Nc5cccc(-c6cccc(NC(=O)c7nc8c(n7C)CCN(CCCC(=O)O)C8)c6Cl)c5Cl)n4C)C3)C(C)(C)C)c21 [Example 20]	50 to 200	< 50				< 0.05
< 0.1	Cc1c(-c2nc3cc(CN4CC[C@H](C(=O)O)C4)cc(C#N)c3o2)cccc1-c1cccc(NC(=O)c2nc3c(n2C)CCN(C)C3)c1Cl [Example P11]						
	CCn1nc(C)cc1C(=O)Nc1nc2cc(C(N)=O)cc(OC)c2n1C/C=C/Cn1c(NC(=O)c2cc(C)nn2CC)nc2cc(C(N)=O)cc(OCCCNC(=O)[C@H](CC(=O)O)NC(=O)[C@H](CC(=O)O)NC(=O)[C@H](CC(=O)O)NC(=O)[C@H](CC(=O)O)NC(=O)[C@H](CC(=O)O)NC(=O)[C@H](CC(=O)O)NC(=O)[C@H](CC(=O)O)NC(=O)CCCN3CCc4c(nc(C(=O)Nc5cccc(-c6cccc(NC(=O)c7nc8c(n7C)CCN(CCCC(=O)O)C8)c6Cl)c5Cl)n4C)C3)c21 [Example 14]	50 to 200	< 50				< 0.05
	CCn1nc(C)cc1C(=O)Nc1nc2cc(C(N)=O)cc(OC)c2n1C/C=C/Cn1c(NC(=O)c2cc(C)nn2CC)nc2cc(C(N)=O)cc(OCCCNC(=O)CCNC(=O)OCc3ccc(NC(=O)[C@H](CCCNC(N)=O)NC(=O)[C@@H](CC(=O)Cn4cc(CCNC(=O)[C@H](CC(=O)O)NC(=O)[C@H](CC(=O)O)NC(=O)[C@H](CCCNC(=N)N)NC(=O)[C@H](CC(=O)O)NC(=O)CCCN5CCc6c(nc(C(=O)Nc7cccc(-c8cccc(NC(=O)c9nc%10c(n9C)CCN(CCCC(=O)O)C%10)c8Cl)c7Cl)n6C)C5)nn4)C(C)C)cc3)c21 [Example 4]	200 to 1000	< 50	< 50	200 to 1000	>20	
	CCn1nc(C)cc1C(=O)Nc1nc2cc(C(N)=O)cc(OC)c2n1C/C=C/Cn1c(NC(=O)c2cc(C)nn2CC)nc2cc(C(N)=O)cc(OCCCNC(=O)[C@H](CCC(=O)O)NC(=O)[C@H](CCC(=O)O)NC(=O)[C@H](CCCNC(=N)N)NC(=O)[C@H](CCC(=O)O)NC(=O)CCCN3CCc4c(nc(C(=O)Nc5cccc(-c6cccc(NC(=O)c7nc8c(n7C)CCN(CCCC(=O)O)C8)c6Cl)c5Cl)n4C)C3)c21 [Example 19]	50 to 200	< 50				< 0.05
	CCn1nc(C)cc1C(=O)Nc1nc2cc(C(N)=O)cc(OCCCNC(=O)[C@H](CC(=O)O)NC(=O)[C@H](CC(=O)O)NC(=O)[C@H](CCCNC(=N)N)NC(=O)[C@H](CC(=O)O)NC(=O)[C@H](CC(=O)O)NC(=O)[C@H](CC(=O)O)NC(=O)[C@H](CCCNC(=N)N)NC(=O)[C@H](CC(=O)O)NC(=O)CCCN3CCc4c(nc(C(=O)Nc5cccc(-c6cccc(NC(=O)c7nc8c(n7C)CCN(CCCC(=O)O)C8)c6Cl)c5Cl)n4C)C3)c2n1C/C=C/Cn1c2nc(-c3cc(C)nn3CC)ncc2c2cc(C(N)=O)cc(OC)c21 [Example 22]	< 50	< 50				< 0.05
	CCn1nc(C)cc1C(=O)Nc1nc2cc(C(N)=O)cc(OC)c2n1C/C=C/Cn1c(NC(=O)c2cc(C)nn2CC)nc2cc(C(N)=O)cc(OCCCNC(=O)[C@H](CC(=O)O)NC(=O)[C@H](CC(=O)O)NC(=O)[C@H](CC(=O)O)NC(=O)[C@H](CC(=O)O)NC(=O)CCCN3CCc4c(nc(C(=O)Nc5cccc(-c6cccc(NC(=O)c7nc8c(n7C)CCN(CCCC(=O)O)C8)c6Cl)c5Cl)n4C)C3)c21 [Example 12]	50 to 200	< 50				
	CCn1nc(C)cc1C(=O)Nc1nc2cc(C(N)=O)cc(OCCCNC(=O)CCNC(=O)OCc3ccc(NC(=O)[C@H](CCCNC(N)=O)NC(=O)[C@@H](NC(=O)Cn4cc(CCNC(=O)[C@H](CC(=O)O)NC(=O)[C@H](CC(=O)O)NC(=O)[C@H](CCCNC(=N)N)NC(=O)[C@H](CC(=O)O)NC(=O)CCCN5CCc6c(nc(C(=O)Nc7cccc(-c8cccc(NC(=O)c9nc%10c(n9C)CCN(CCCC(=O)O)C%10)c8Cl)c7Cl)n6C)C5)nn4)C(C)C)cc3)c2n1C/C=C/Cn1c2nc(-c3cc(C)nn3CC)ncc2c2cc(C(N)=O)cc(OC)c21 [Example 9]	200 to 1000	< 50				0.05 to 0.2
	CCn1nc(C)cc1C(=O)Nc1nc2cc(C(N)=O)cc(OCCCNC(=O)[C@H](CC(=O)O)NC(=O)[C@H](CC(=O)O)NC(=O)[C@H](CCCNC(N)=O)NC(=O)[C@H](CC(=O)O)NC(=O)CCCN3CCc4c(nc(C(=O)Nc5cccc(-c6cccc(NC(=O)c7nc8c(n7C)CCN(CCCC(=O)O)C8)c6Cl)c5Cl)n4C)C3)c2n1C/C=C/Cn1c2nc(-c3cc(C)nn3CC)ncc2c2cc(C(N)=O)cc(OC)c21 [Example 21]	50 to 200	< 50				< 0.05
< 0.1	Cc1c(NC(=O)c2ccc(CNCCO)cn2)cccc1-c1cccc(NC(=O)c2ccc(CNCCO)cn2)c1Cl [Example P7]						
